Series [1] has as its system Trichomonas vaginalis G3 trophozoites. The series is described as follows: microbe, parasite or virus in culture. Conditions: 48 h.
In the next series the test system is T. foetus. The experiment in a line: Medium-throughput (MTS) confirmatory dose-response growth assay, T. foetus. The settings on record: 48 h; for IC50: 96-well, 10,000 cells/mL in 50 μL, mean ± SEM, >10 = no appreciable activity at highest dose. In kind it is cell-based, Tritrichomonas foetus. Here is the method:
(§1) For microtiter plate assays, trichomonads were grown in anaerobic conditions within GasPak EZ anaerobe pouches with fresh anaerobic sachets. Working reagent of the chromogen was phenol red (Sigma) in a 1% w/v working solution in phosphate buffered saline (PBS), which was filter sterilised. Chromogen absorbance was monitored at 570 nm on an absorbance microplate reader after plates were allowed to equilibrate in atmospheric conditions at room temperature for at least 5 min.
(§2) After absorbances were measured, data were processed as followed unless indicated otherwise in the text. […] Prism 8 (GraphPad) was used to plot dose-response curves and calculate IC50 values, using a least squares regression, log[inhibitor] vs normalised response (variable slope, four parameters) model. Where replicate plates were used, data for dose-response curves were plotted as the mean±SD of these replicates.
(§3) A selection of 17 compounds assayed in the high-throughput screen (HTS) for T. vaginalis which were available through BioAustralis were obtained for validation of inhibitory in/activity in our optimised medium-throughput format. For this, a 10-point serial dilution was used for drug-susceptibility testing to calculate IC50 values of ‘hit’ compounds. Mtz was used as a positive control. Each screen was performed with 3 technical replicates and a minimum of 2 biological replicates in both T. vaginalis and T. foetus using assay conditions of seeds of 10,000 cells/mL in 50 μL, with absorbance measured at 48 h. Dose response curves and IC50 were calculated for each compound as described above in Section 2.3.

Series [2] relates to Trichomonas vaginalis G3 trophozoites. The settings on record: for T.vaginalis_Absorbance_Rep1 / T.vaginalis_Absorbance_Rep2 / T.vaginalis_%inb_Rep1 / T.vaginalis_%inb_Rep2: HTS, parasite screen at 1 µg/mL; for T.vaginalis_Absorbance_Rep1: replicate 1, raw absorbance; for T.vaginalis_Absorbance_Rep2: replicate 2, raw absorbance; for T. vaginalis HTS result in words: hit = >50% inhibition; for T.vaginalis_%inb_Rep1: replicate 1; for T.vaginalis_%inb_Rep2: replicate 2.

Series [3] relates to nontumorigenic neonatal foreskin fibroblast (NFF) cell line.
The subject of a further series is T. vaginalis. The series is described as follows: Medium-throughput (MTS) confirmatory dose-response growth assay, T. vaginalis. The series is classed as cell-based, Trichomonas vaginalis. Conditions: for activity against T. vaginalis in MTS, in words: 10-point dilution series, 96-well; for activity against T. vaginalis in MTS, in words / IC50: 48 h; for IC50: 96-well, 10,000 cells/mL in 50 μL, mean ± SEM, >10 = no appreciable activity at highest dose; for species-specificity T. vaginalis vs T. foetus in MTS: comparison of MTS IC50 in both species. Here is the method:
as §1, §2, §3

Setting [4] is: read-out: T.vaginalis_%inb_Rep1.
Setting [5] is: read-out: T.vaginalis_%inb_Rep2.
[6] abbreviates: NFF fibroblast screen at 5 µg/mL, A = active, I = inactive.
The mark [7] stands for this setting: 384-well, 25 μL, 10,000 cells/mL, 48 h, biological duplicates.

Molecules are shown by their SMILES. Entries after “also recorded” stand apart in the source; their conditions may differ. Read-outs that look alike come from different tables or passages of the source.

Regarding `CN1C(=O)[C@]23CC4=CC=C[C@H](O)[C@H]4N2C(=O)[C@@]1(CO)SS3` [Gliotoxin, gliotoxin, reference compound], the inhibition of growth at 1 µg/mL in series [1] (setting [4]) is 71%; in series [1] (setting [5]), 78.7%. The concentration for half-maximal inhibition (IC50) in the series on T. foetus (Tritrichomonas foetus) and in the series with T. vaginalis (Trichomonas vaginalis) was greater than 10 µM each time. Besides, the T.vaginalis_Absorbance_Rep1 in series [2] was determined as 2.103. In series [2], this compound registered a T.vaginalis_Absorbance_Rep2 of 1.862. Further, the NFF_Activity entry in series [3] (NFF_NS1 screen at 5 µg/mL) was “A (active (A) compounds having >25% inhibitory activity)”. Also, the “activity against T. vaginalis in MTS, in words” value (“activity against T. vaginalis” below) in the series with T. vaginalis was “no activity”.

As to `Nc1ncnc2c1ccn2[C@@H]1O[C@H](CO)[C@@H](O)[C@H]1O` [Tubercidin, tubercidin], the figures for the inhibition of growth at 1 µg/mL in series [1] (setting [4]) and in series [1] (setting [5]) were 63.8% and 76%, respectively. In addition, the concentration for half-maximal inhibition (IC50) in the series with T. foetus (Tritrichomonas foetus) is greater than 10 µM; with T. vaginalis (Trichomonas vaginalis) it was 2.4 ± 0.1 µM. Besides, the NFF_Activity entry in series [3] (setting [6]) is recorded as “A (active (A) compounds having >25% inhibitory activity)”. The “activity against T. vaginalis” value in the series with T. vaginalis is reported as “true positives”. The “species-specificity T. vaginalis vs T. foetus in MTS” value in the series with T. vaginalis is listed as “selective activity against T. vaginalis but not T. foetus”.

For the compound `COc1ccc2cc1Oc1cc(ccc1O)[C@H](O)[C@]13SS[C@@]4(C(=O)N1C)[C@H](O)C1=COC=C[C@H](OC2=O)[C@H]1N4C3=O` [Emestrin, emestrin, reference compound], the “activity against T. foetus in MTS, in words” value in the series with T. foetus (10-point dilution series, 96-well) is “inconsistent between biological replicates”. The same compound yielded a half-inhibitory concentration (IC50) in the series on T. foetus of 7.3 ± 3.3 µM. In addition, the “T. vaginalis HTS result in words” value in series [2] (setting [7]) is recorded as “partial hits”. In series [2], this compound displayed a T.vaginalis_%inb_Rep1 of 12.22%, a T.vaginalis_Absorbance_Rep1 of 0.943, a T.vaginalis_%inb_Rep2 of 63.12% and a T.vaginalis_Absorbance_Rep2 of 1.619. For the same compound, the NFF_Activity entry in series [3] (NFF_NS1 screen at 5 µg/mL) is “A (active (A) compounds having >25% inhibitory activity)”. Further, in the series with T. vaginalis, the “activity against T. vaginalis” value is “inactive” and the half-inhibitory concentration (IC50) was greater than 10 µM.

Compound `CC(/C=C/C(=O)NO)=C\[C@@H](C)C(=O)c1ccc(N(C)C)cc1` [Trichostatin A, trichostatin A, reference compound] returned a concentration for half-maximal inhibition (IC50) with T. foetus of 0.048 ± 0.006 µM. Moreover, in series [2] (setting [7]), the “T. vaginalis HTS result in words” value is given as “supported the anti-trichomonal activity”. In series [2], this compound yielded a T.vaginalis_%inb_Rep1 of 71.95% and a T.vaginalis_%inb_Rep2 of 67.89%. Further, in series [3] (setting [6]), the NFF_Activity entry was “I (otherwise these were reported as inactive (I))”. Further, the “activity against T. vaginalis” value in the series on T. vaginalis (listed as TSA) is recorded as “true positives”. In addition, the IC50 in the series with T. vaginalis came out at 0.22 ± 0.06 µM.

On to `N#Cc1cn([C@@H]2O[C@H](CO)[C@@H](O)[C@H]2O)c2ncnc(N)c12` [Toyocamycin, toyocamycin, reference compound], for which the inhibition of growth at 1 µg/mL in series [1] (setting [4]) was found to be 69.9%; in series [1] (setting [5]), 77.5%. Also, the IC50 was 2.4 ± 0.7 µM with T. foetus (Tritrichomonas foetus) and 0.3 ± 0.01 µM in the series with T. vaginalis (Trichomonas vaginalis). In series [2] (setting [7]), the “T. vaginalis HTS result in words” value was “supported the anti-trichomonal activity”. Besides, the NFF_Activity result in series [3] (setting [6]) was “I (otherwise these were reported as inactive (I))”. Besides, the “activity against T. vaginalis” value in the series with T. vaginalis is reported as “true positives”. Also, the “species-specificity T. vaginalis vs T. foetus in MTS” value with T. vaginalis is “remained active against both T. vaginalis and T. foetus”.

On to `O=[N+]([O-])c1ncc[nH]1` [Azomycin, azomycin], for which the half-inhibitory concentration (IC50) in the series on T. foetus (Tritrichomonas foetus) was determined as 8.6 ± 4.3 µM; in the series on T. vaginalis (Trichomonas vaginalis) it was 9.7 ± 5.5 µM. Further, in series [2] (384-well, 25 μL, 10,000 cells/mL, 10% chromogen, 48 h, single concentration, biological duplicates), the “T. vaginalis HTS results” value is recorded as “I”. The “T. vaginalis HTS result in words” value in series [2] (setting [7]) is “inactive”. Also, in the series with T. vaginalis, the “activity against T. vaginalis” value was “confirmed active; also recorded: inconsistent activity”.

Compound `Cn1ncnc2c(=O)n(C)c(=O)nc1-2` [Toxoflavin, toxoflavin, reference compound] had a 50% inhibitory concentration (IC50) in the series on T. foetus of 4.1 ± 0.9 µM. In addition, the “T. vaginalis HTS result in words” value in series [2] (setting [7]) is given as “partial hits”. In series [2], the T.vaginalis_%inb_Rep1 is recorded as 5.72% and the T.vaginalis_%inb_Rep2 amounted to 100.00%. Besides, the NFF_Activity entry in series [3] (setting [6]) is listed as “A (active (A) compounds having >25% inhibitory activity)”. Moreover, in the series with T. vaginalis, the “activity against T. vaginalis” value is recorded as “confirmed active”; the IC50 was determined as 3.1 ± 1.7 µM; the “species-specificity T. vaginalis vs T. foetus in MTS” value is “remained active against both T. vaginalis and T. foetus”.

(Values after PMC7897990, “TriTOX: A novel Trichomonas vaginalis assay platform for high-throughput screening of compound libraries” (International Journal for Parasitology: Drugs and Drug …, 2021).)
